pIC50: −log10 of the molar value.
Columns and labels:
[1] = target: human JAK1 (a.a. 837-1142) (Homo sapiens, UniProt P23458); test: In vitro JAK kinase assay (HTRF), JAK1; type: biochemical; conditions: 1 mM ATP
Method: (§1) The catalytic activity of JAK1, JAK2 or JAK3 was assayed by measuring the phosphorylation of a biotinylated peptide. The phosphorylated peptide was detected by homogenous time resolved fluorescence (HTRF). […] Reactions were carried out at room temperature for 1 hour and then stopped with 20 μL 45 mM EDTA, 300 nM SA-APC, 6 nM Eu-Py20 in assay buffer (Perkin Elmer, Boston, MA). Binding to the Europium labeled antibody took place for 40 minutes and HTRF signal was measured on a Fusion plate reader (Perkin Elmer, Boston, MA).

JAK2 (a.a. 828-1132) = JAK2 (a.a. 828-1132) (Homo sapiens (Human), UniProt O60674); test: In vitro JAK kinase assay (HTRF), JAK2 versus JAK1; type: biochemical; conditions: IC50 ratio, 1 mM ATP
Chain of JAK2 (a.a. 828-1132) (O60674 828-1132): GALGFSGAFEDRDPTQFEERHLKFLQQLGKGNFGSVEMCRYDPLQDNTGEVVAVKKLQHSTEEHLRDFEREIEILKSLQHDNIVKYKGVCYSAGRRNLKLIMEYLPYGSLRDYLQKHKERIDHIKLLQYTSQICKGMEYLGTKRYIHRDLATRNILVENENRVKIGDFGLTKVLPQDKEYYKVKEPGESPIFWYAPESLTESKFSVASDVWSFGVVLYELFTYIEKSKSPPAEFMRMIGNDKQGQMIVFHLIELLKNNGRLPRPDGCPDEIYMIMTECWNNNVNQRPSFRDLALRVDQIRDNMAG
Method: as §1

| SMILES | pIC50 [1] | JAK2/JAK1 (JAK2 (a.a. 828-1132)) |
| --- | --- | --- |
| N#CCC(C1CCN(c2cccc(Cl)n2)C1)n1cc(-c2ncnc3[nH]ccc23)cn1 (single isomer, unassigned) [Compound 6, 3-[1-(6-chloropyridin-2-yl)pyrrolidin-3-yl]-3-[4-(7H-pyrrolo[2,3-d]pyrimidin-4-yl)-1H-pyrazol-1-yl]propanenitrile] | > 8.00 | >10 |
| N#CCC1(n2cc(-c3ncnc4[nH]ccc34)cn2)CN(C2CCN(C(=O)c3ccnc(C(F)(F)F)c3F)CC2)C1 [Compound 4, {1-{1-[3-Fluoro-2-(trifluoromethyl)isonicotinoyl]piperidin-4-yl}-3-[4-(7H-pyrrolo[2,3-d]pyrimidin-4-yl)-1H-pyrazol-1-yl]azetidin-3-yl}acetonitrile] | > 8.00 | >10 |
| N#CCC(CN1CCN(C(=O)c2ccc(C#N)cc2F)CC1)n1ccc(-c2ncnc3[nH]ccc23)c1 (stereo not shown) [Compound 9, 4-[(4-{3-cyano-2-[3-(7H-pyrrolo[2,3-d]pyrimidin-4-yl)-1H-pyrrol-1-yl]propyl}piperazin-1-yl)carbonyl]-3-fluorobenzonitrile] | > 8.00 | >10 |
| N#CC[C@]1(n2cc(-c3ncnc4[nH]ccc34)cn2)C[C@H](N2CCN(C(=O)c3ccnc(C(F)(F)F)n3)CC2)C1 [Compound 10, [trans-1-[4-(7H-pyrrolo[2,3-d]pyrimidin-4-yl)-1H-pyrazol-1-yl]-3-(4-{[2-(trifluoromethyl)pyrimidin-4-yl]carbonyl}piperazin-1-yl)cyclobutyl]acetonitrile] | > 8.00 | >10 |
| N#CC[C@]1(n2cc(-c3ncnc4[nH]ccc34)cn2)C[C@H](N2CCC(Oc3cc(CN4CC(O)C4)cc(C(F)(F)F)n3)CC2)C1 [Compound 11, {trans-3-(4-{[4-[(3-hydroxyazetidin-1-yl)methyl]-6-(trifluoromethyl)pyridin-2-yl]oxy}piperidin-1-yl)-1-[4-(7H-pyrrolo[2,3-d]pyrimidin-4-yl)-1H-pyrazol-1-yl]cyclobutyl}acetonitrile] | > 8.00 | >10 |
| N#CC[C@]1(n2cc(-c3ncnc4[nH]ccc34)cn2)C[C@H](N2CCC(Oc3cc(CN4CCC[C@@H]4CO)cc(C(F)(F)F)n3)CC2)C1 [Compound 13, {trans-3-(4-{[4-{[(2R)-2-(hydroxymethyl)pyrrolidin-1-yl]methyl}-6-(trifluoromethyl)pyridin-2-yl]oxy}piperidin-1-yl)-1-[4-(7H-pyrrolo[2,3-d]pyrimidin-4-yl)-1H-pyrazol-1-yl]cyclobutyl}acetonitrile] | > 8.00 | >10 |
| C[C@H](NC(=O)c1cc(F)c(N2CC(CC#N)(n3cc(-c4ncnc5[nH]ccc45)cn3)C2)cc1F)C(F)(F)F [Compound 16, 4-{3-(cyanomethyl)-3-[4-(7H-pyrrolo[2,3-d]pyrimidin-4-yl)-1H-pyrazol-1-yl]azetidin-1-yl}-2,5-difluoro-N-[(1S)-2,2,2-trifluoro-1-methylethyl]benzamide] | > 8.00 | >10 |
| N#CCC1(n2cc(-c3ncnc4[nH]ccc34)cn2)CN([C@H]2CC[C@@H](Oc3cc(CCO)nc(C(F)(F)F)n3)CC2)C1 [Compound 18, {1-(cis-4-{[6-(2-hydroxyethyl)-2-(trifluoromethyl)pyrimidin-4-yl]oxy}cyclohexyl)-3-[4-(7H-pyrrolo[2,3-d]pyrimidin-4-yl)-1H-pyrazol-1-yl]azetidin-3-yl}acetonitrile] | > 8.00 | >10 |
| CCNCc1cc(O[C@H]2CC[C@@H](N3CC(CC#N)(n4cc(-c5ncnc6[nH]ccc56)cn4)C3)CC2)nc(C(F)(F)F)c1 [Compound 19, {1-(cis-4-{[4-[(ethylamino)methyl]-6-(trifluoromethyl)pyridin-2-yl]oxy}cyclohexyl)-3-[4-(7H-pyrrolo[2,3-d]pyrimidin-4-yl)-1H-pyrazol-1-yl]azetidin-3-yl}acetonitrile] | > 8.00 | >10 |
| N#CCC1(n2cc(-c3ncnc4[nH]ccc34)cn2)CN([C@H]2CC[C@@H](Oc3cc(CN4CC[C@@H](O)C4)cc(C(F)(F)F)n3)CC2)C1 [Compound 21, {1-(cis-4-{[4-{[(3R)-3-hydroxypyrrolidin-1-yl]methyl}-6-(trifluoromethyl)pyridin-2-yl]oxy}cyclohexyl)-3-[4-(7H-pyrrolo[2,3-d]pyrimidin-4-yl)-1H-pyrazol-1-yl]azetidin-3-yl}acetonitrile] | > 8.00 | >10 |

The next lines start with the values.

| pIC50 [1] | JAK2/JAK1 (JAK2 (a.a. 828-1132)) | SMILES |
| --- | --- | --- |
| > 8.00 | >10 | N#CCC1(n2cc(-c3ncnc4[nH]ccc34)cn2)CN(C2CCN(C(=O)Nc3ccc(F)cc3C(F)(F)F)CC2)C1 [Compound 2, 4-{3-(Cyanomethyl)-3-[4-(7H-pyrrolo[2,3-d]pyrimidin-4-yl)-1H-pyrazol-1-yl]azetidin-1-yl}-N-[4-fluoro-2-(trifluoromethyl)phenyl]piperidine-1-carboxamide] |
| > 8.00 | >10 | N#CCC1(n2cc(-c3ncnc4[nH]ccc34)cn2)CN(C2CCN(C(=O)c3ccnc(C(F)(F)F)n3)CC2)C1 [Compound 3, [3-[4-(7H-pyrrolo[2,3-d]pyrimidin-4-yl)-1H-pyrazol-1-yl]-1-(1-{[2-(trifluoromethyl)pyrimidin-4-yl]carbonyl}piperidin-4-yl)azetidin-3-yl]acetonitrile] |
| > 7.00 | >10 | C[C@@H](O)c1nc2cnc3ccsc3c2n1[C@H]1CC[C@H](CC#N)OC1 [Compound 5, ((2R,5S)-5-{2-[(1R)-1-hydroxyethyl]-1H-imidazo[4,5-d]thieno[3,2-b]pyridin-1-yl}tetrahydro-2H-pyran-2-yl)acetonitrile] |
| > 8.00 | >10 | N#CCC(C1CCN(c2nc3cccnc3o2)C1)n1cc(-c2ncnc3[nH]ccc23)cn1 (stereo not shown) [Compound 7, 3-(1-[1,3]oxazolo[5,4-b]pyridin-2-ylpyrrolidin-3-yl)-3-[4-(7H-pyrrolo[2,3-d]pyrimidin-4-yl)-1H-pyrazol-1-yl]propanenitrile] |
| > 8.00 | >10 | N#CCC(CN1CCN(C(=O)c2ccc(C#N)cc2F)CC1)n1cc(-c2ncnc3[nH]ccc23)cn1 (stereo not shown) [Compound 8, 4-[(4-{3-cyano-2-[4-(7H-pyrrolo[2,3-d]pyrimidin-4-yl)-1H-pyrazol-1-yl]propyl}piperazin-1-yl)carbonyl]-3-fluorobenzonitrile] |
| > 8.00 | >10 | N#CC[C@]1(n2cc(-c3ncnc4[nH]ccc34)cn2)C[C@H](N2CCC(Oc3cc(CN4CCC[C@H]4CO)cc(C(F)(F)F)n3)CC2)C1 [Compound 12, {trans-3-(4-{[4-{[(2S)-2-(hydroxymethyl)pyrrolidin-1-yl]methyl}-6-(trifluoromethyl)pyridin-2-yl]oxy}piperidin-1-yl)-1-[4-(7H-pyrrolo[2,3-d]pyrimidin-4-yl)-1H-pyrazol-1-yl]cyclobutyl}acetonitrile] |
| > 8.00 | >10 | CC(C)(O)c1cc(O[C@H]2CC[C@@H](N3CC(CC#N)(n4cc(-c5ncnc6[nH]ccc56)cn4)C3)CC2)nc(C(F)(F)F)c1 [Compound 20, {1-(cis-4-{[4-(1-hydroxy-1-methylethyl)-6-(trifluoromethyl)pyridin-2-yl]oxy}cyclohexyl)-3-[4-(7H-pyrrolo[2,3-d]pyrimidin-4-yl)-1H-pyrazol-1-yl]azetidin-3-yl}acetonitrile] |
